Results taken from patent publication US6787546B2, “Heterocycle derivatives and drugs” (Nippon Shinyaku Co., Ltd., priority 1999, dated 2004).
Values after ≈ are worked out from the molar mass of the structure shown. Like-named read-outs stand apart in the source and are kept apart here.

What was measured:
Solubility in water = format: physicochemical
Method: The water solubility of the compound of the present invention was measured at 25° C. As the control compounds, (E)-4-(2-(2-(N-(4-methoxybenzenesulfonyl)amino)-phenyl)ethenyl)pyridine 1-oxide (Compound A) and (E)-4-(2-(2-(N-acetyl-N-(4-methoxy-benzenesulfonyl)amino)phenyl)ethenyl)pyridine 1-oxide (Compound B) were used.

[1] = tested on: Colon-26 (Mouse Colon Cancer) Cells; assay: Anticancer activity against Colon-26 cells transplanted in mice; format: in vivo; conditions: day 21; for Tumor growth inhibition rate (%): 5 times at intervals of 4 days; for Number of Survival: 6 animals/group
Method: Anticancer Activity Against Colon-26 (Mouse Colon Cancer) Cells Transplanted in Mice
Colon-26 cells cultured in vitro were transplanted subcutaneously with an injection syringe in the right axillary region of Balb/c 5-week-old male mice (5×10^5 cells/animal). The mice were divided into groups of 6 animals/group when the tumor volume had reached about 120 mm^3 (Experiment 1) or about 100 mm^3 (Experiment 2). The test drug dissolved in 5% glucose solution was administered intravenously 5 times in total once daily at intervals of 4 days. The mice of control group were treated in the same manner with 5% glucose solution. The tumor volume was calculated according to the Equation 1 below on the basis of the major and minor axes of the tumor measured at a given interval with vernier calipers. [formula]
The growth rate was then calculated according to the Equation 2 based on the tumor volume, which was then applied to the Equation 3 for the calculation of the growth inhibition rate in drug-treatment group relative to the control group. [formula]
The tumor growth inhibition rate and the number of survivals at day 21 after initiation of the administration are shown in Table 1.

[2] = Experiment 1 (tumor about 120 mm^3 at start), 50 mg/kg i.v.
[3] = Experiment 1, dose not printed (second dose line of Example 5), i.v.
[4] = Experiment 1 (tumor about 120 mm^3 at start), 75 mg/kg i.v.
[5] = Experiment 2 (tumor about 100 mm^3 at start), 50 mg/kg i.v.
[6] = Experiment 2 (tumor about 100 mm^3 at start), 75 mg/kg i.v.

**Q.** For `COc1ccc(S(=O)(=O)N(C(=O)CN)c2ccccc2/C=C/c2cc[n+]([O-])cc2)cc1.Cl`, which melting point is on record?
**A.** 235 to 237 °C

**Q.** For `COc1ccc(S(=O)(=O)N(C(=O)CN2CCN(c3cccnc3)CC2)c2ccccc2/C=C/c2cc[n+]([O-])cc2)cc1.Cl.Cl`, which melting point is on record?
**A.** 167 °C (dec.)

**Q.** With `COc1ccc(S(=O)(=O)N(C(=O)c2ccncc2)c2ccccc2/C=C/c2cc[n+]([O-])cc2)cc1.Cl.Cl` as the compound, how does the melting point read?
**A.** 198 to 200 °C

**Q.** For `COc1ccc(S(=O)(=O)N(C(=O)c2cccnc2)c2ccccc2/C=C/c2cc[n+]([O-])cc2)cc1.Cl.Cl`, which melting point is on record?
**A.** 187 to 189 °C

**Q.** Which solubility (Solubility in water; 25 °C) does the source give for `COc1ccc(S(=O)(=O)Nc2ccccc2/C=C/c2cc[n+]([O-])cc2)cc1` [Compound A, (E)-4-(2-(2-(N-(4-methoxybenzenesulfonyl)amino)-phenyl)ethenyl)pyridine 1-oxide] here?
**A.** 29 µg/mL (≈ 75.8 µM)

**Q.** Which solubility (Solubility in water; 25° C., control compounds, read-out: water solubility) does the source give for `COc1ccc(S(=O)(=O)N(C(C)=O)c2ccccc2/C=C/c2cc[n+]([O-])cc2)cc1` [Compound B, (E)-4-(2-(2-(N-acetyl-N-(4-methoxy-benzenesulfonyl)amino)phenyl)ethenyl)pyridine 1-oxide] here?
**A.** 18 µg/mL (≈ 42.4 µM)

**Q.** With `COc1ccc(S(=O)(=O)N(C(=O)CN2CCCCC2)c2ccccc2/C=C/c2cc[n+]([O-])cc2)cc1.Cl` [Example 5, (E)-4-(2-(2-(N-(4-Methoxybenzenesulfonyl)-N-piperidinoacetyl-amino)phenyl)ethenyl)pyridine 1-oxide hydrochloride] as the compound, how does the “Tumor growth inhibition rate (%)” value [1, 2] read?
**A.** 78.0%

**Q.** What about the “Number of Survival” value ([1]; Experiment 1, 50 mg/kg i.v.) of the same compound?
**A.** 6/6

**Q.** What about the “Tumor growth inhibition rate (%)” value [1, 3] of the same compound?
**A.** 87.7%

**Q.** And the “Number of Survival” value [1, 3]?
**A.** 6/6

**Q.** Which results are given for `COc1ccc(S(=O)(=O)N(C(=O)CN(C)C)c2ccccc2/C=C/c2cc[n+]([O-])cc2)cc1.Cl` [Example 8, (E)-4-(2-(2-(N-(N,N-Dimethylglycyl)-N-(4-methoxybenzenesulfonyl) -amino)phenyl)ethenyl)pyridine 1-oxide hydrochloride]?
**A.** Tumor growth inhibition rate (%) [1, 2]: 87.0%; Tumor growth inhibition rate (%) [1, 4]: 95.9%; Number of Survival ([1]; Experiment 1, 50 mg/kg i.v.): 5/6; Number of Survival ([1]; Experiment 1, 75 mg/kg i.v.): 5/6

**Q.** Which results are given for `COc1ccc(S(=O)(=O)N(C(=O)CN2CCN(c3ccccn3)CC2)c2ccccc2/C=C/c2cc[n+]([O-])cc2)cc1.Cl.Cl` [Example 9, (E)-4-(2-(2-(N-(4-Methoxybenzenesulfonyl)-N-(4-(2-pyridyl)piperazino)acetylamino)phenyl)ethenyl)pyridine 1-oxide dihydrochloride]?
**A.** Tumor growth inhibition rate (%) [1, 2]: 80.8%; Tumor growth inhibition rate (%) [1, 4]: 93.6%; Number of Survival ([1]; Experiment 1, 50 mg/kg i.v.): 6/6; Number of Survival ([1]; Experiment 1, 75 mg/kg i.v.): 5/6

**Q.** With `COc1ccc(S(=O)(=O)N(C(=O)CN2CCOCC2)c2ccccc2/C=C/c2cc[n+]([O-])cc2)cc1.Cl` [Example 13, (E) -4-(2-(2-(N-(4-Methoxybenzenesulfonyl)-N-morpholinoacetyl-amino)phenyl)ethenyl)pyridine 1-oxide hydrochloride] as the compound, how does the “Tumor growth inhibition rate (%)” value [1, 5] read?
**A.** 73.8%

**Q.** What about the “Tumor growth inhibition rate (%)” value [1, 6] of the same compound?
**A.** 92.6%

**Q.** What about the “Number of Survival” value ([1]; Experiment 2, 50 mg/kg i.v.) of the same compound?
**A.** 6/6

**Q.** And the “Number of Survival” value ([1]; Experiment 2, 75 mg/kg i.v.)?
**A.** 6/6

**Q.** With `COc1ccc(S(=O)(=O)N(C(=O)CN2CCCC2)c2ccccc2/C=C/c2cc[n+]([O-])cc2)cc1.Cl` [Example 14, (E)-4-(2-(2-(N-(4-Methoxybenzenesulfonyl)-N-pyrrolidinoacetylamino) -phenyl)ethenyl)pyridine 1-oxide hydrochloride] as the compound, how does the “Tumor growth inhibition rate (%)” value [1, 5] read?
**A.** 78.6%

**Q.** What about the “Tumor growth inhibition rate (%)” value [1, 6] of the same compound?
**A.** 84.1%

**Q.** What about the “Number of Survival” value ([1]; Experiment 2, 50 mg/kg i.v.) of the same compound?
**A.** 6/6

**Q.** And the “Number of Survival” value ([1]; Experiment 2, 75 mg/kg i.v.)?
**A.** 6/6
